B1: TSBT×6146: guide polynucleotide targeting PPIA (nucleic acid)
guide: CGTACCTGACACATAAACCCGTTTTAGAGCTAGAAATAGCAAGTTAAAATAAGGCTAGTCCGTTATCAACTTGAAAAAGTGGCACCGAGTCGGTGCTTTT
modifications: chemistry not given here
notes: guide polynucleotide targeting PPIA
B2: TSBT×6143: guide polynucleotide targeting PPIA (nucleic acid)
guide: GCCCGACCTCAAAGGAGACGGTTTTAGAGCTAGAAATAGCAAGTTAAAATAAGGCTAGTCCGTTATCAACTTGAAAAAGTGGCACCGAGTCGGTGCTTTT
modifications: chemistry not given here
notes: as for B1

Tests used:
donor T cells = details: 10 nM dose of AP1903; cells expressing iCasp9; cited from earlier work
19CAR-T cells [1] = assay: CAR-T cell proliferation assay; assay type: cell-based, human; details: corticosteroid treatment; JeKo-1 stimulation
Text: Primary human T cells were activated using an anti-CD3/CD28/CD2 reagent. Two-days after being contacted with the reagent, the T cells were edited using a base editor system containing the guide polynucleotide TSBT×1538 and the base editor ABE8.20m using electroporation, as described above. Following electroporation, both the T cells were transduced with a lentiviral vector encoding an anti-CD19 CAR (19CAR) and allowed to expand in culture for approximately 7 days before being cryopreserved for later analysis. Unedited anti-CD19 CAR-T cells were prepared as a negative control. The 19CAR-T cells were then thawed from cryopreservation and rested overnight before being stimulated using dynabeads coated with recombinant human CD19 protein-coated at a bead-to-cell ratio of 1:1. The T cells were cultured in the presence of 100 nM of the immunosuppressant rapamycin or dimethylsulfoxide (DMSO) as a control for 6 days. The total number of T cells were enumerated using a NucleoCounter NC-200™ automated cell counter.
Primary human T cells were activated using an anti-CD3/CD28/CD2 reagent. Two days after being contacted with the reagent, the T cells were edited using a base editor system containing the guide polynucleotide TSBT×1538 and the base editor ABE8.20m using the electroporation protocol described above. Both edited and unedited T cells were transduced with a lentiviral vector encoding an anti-CD19 CAR (19CAR) and allowed to expand in culture for approximately 7 days before being cryopreserved for later analysis. Unedited 19CAR-T cells were used as a control. For analysis, the 19CAR-T cells were thawed and rested for 72 hours before labeling using a CellTrace™ Far Red (CTFR) dye. After CTFR labeling, the 19CAR-T cells were stimulated using an Immunocult™ Human CD3/CD28/CD2 universal T cell activator in the presence of 100 nM of the immunosuppressant agent rapamycin or in the presence of DMSO (control) and allowed to incubate for an additional 3 days. Following the three-day incubation, the T cells were analyzed using flow cytometry to measure dilution of CTFR dye as an indicator of cell proliferation.
The following day, T cells were washed, counted and 1×10^4 cells were seeded in triplicate into a 96-well flat bottom plate alone or with 1×10^4 JeKo-1.GFP^+ tumor cells. […] On day 7, samples were analyzed by flow cytometry and 19CAR-T cells were enumerated using CountBright Counting Beads (Thermo Fisher Scientific) following the manufacturer's protocol.

19CAR-T cells [2] = assay: CAR-T cell cytokine production assay; assay type: cell-based, human; details: corticosteroid treatment; JeKo-1 stimulation; IFNg and TNFa
Experimental: 10. Monensin and Brefeldin A were added to the cell cultures to inhibit protein secretion for the duration of the stimulation. After the 6 hours, the cells were stained with reagents against 19CAR, CD4, CD8, IFNg, and TNFa, and the cells were also stained using a viability stain. Fluorescence activated cell sorting (FACS) was then used to measure intracellular levels of IFNg (y-axis) and TNFa (x-axis) in CD4^+ 19CAR-T cells. In FIG. 10, the numbers in each quadrant of each contour plot represent the percent of total cells counted that fell within the quadrant.
10. Monensin and Brefeldin A were added to the cell cultures to inhibit protein secretion for the duration of the stimulation. After the 6 hours, the cells were stained with reagents against 19CAR, CD4, CD8, IFNg, and TNFa, and the cells were also stained using a viability stain. Fluorescence activated cell sorting (FACS) was then used to measure intracellular levels of IFNg (y-axis) and TNFa (x-axis) in CD8^+ 19CAR-T cells. In FIG. 10, the numbers in each quadrant of each contour plot represent the percent of total cells counted that fell within the quadrant.
The following day, T cells were washed, counted and 1×10^5 cells were seeded in duplicate into a 96-well flat bottom plate alone or with 2×10^5 JeKo-1.GFP^+ tumor cells. […] Cells were incubated for 6 hours total before analysis by flow cytometry.

endogenous NK cells = assay: IL-15 treatment of HIS mice, elimination of HLA-deficient T cells; assay type: in vivo, BLT mice; details: 2.5 mg every 2-3 days, 6 total injections
Text: FIGS. 20A to 20E provide plots, a schematic diagram, and a flow cytometry scatter plot showing human immune system (HIS) mice under-reconstituted human NK cells and necessitated IL-15 treatment to eliminate HLA-deficient T cells. FIG. 20A provides a plot showing frequency of human CD56^+ NK cells of CD45^+ cells in PBMCs from human donors (n=10), BLT-NSG mice (Cohort A, n=18; Cohort B, n=15; Cohort C, n=18) and huCD34^+ NCG mice (Cohort D, n=17; Cohort E, n=12; Cohort F, n=24; Cohort G, n=12). FIGS. 20B to 20E relate to an experiment where HIS mice were treated every 2-3 days with recombinant human IL-15 (2.5 mg) or PBS for 6 total injections. Mice were then coinfused 1:1 ratio with allogeneic CD4-based CAR-T cells that were base-edited for TCRKO (HLA+) or TCRKOb2MKOCIITAKO (HLA−). […] Statistical significance was calculated by Wilcoxon matched-pairs signed rank test (FIG. 20E).
For the study described in FIGS. 20A to 20E, BLT mice received intraperitoneal injections every 2-3 days of 2.5 mg recombinant human IL-15 (BioLegend; n=6) or sterile PBS (n=3) for 6 total injections. […] Persistence of 4CAR-T cells was monitored at 1-, 4- and 7-days post-T cell infusion via blood draw from the retro-orbital sinus. […] Persistence of 4CAR-T cells was monitored at 1-day post-T cell infusion and weekly thereafter via blood draw from submandibular vein.

PPIA protein = assay: Flow cytometry of PPIA protein in edited T cells; assay type: cell-based, human; details: T cells edited with ABE8.20m and the guide, five days
Text: FIG. 7 provides a set of overlaid flow cytometry histograms confirming knock-out of PPIA protein expression in primary human T cells edited using base editor systems containing
ABE8.20m and the guide polynucleotide TSBT×6143 or TSBT×6146 (see Table 1 for nucleotide sequences). Five days following being contacted with the base editor systems, the T cells were stained using LIVE/DEAD™ Fixable Near-Infra Red (NIR) stain (Thermo). The cells were then fixed and permeabilized followed by immunostaining using a primary antibody targeting PPIA (polyclonal Cyclophilin A Antibody from ProteinTech; 10720-1-AP). The cells were then contacted with a secondary antibody (polyclonal Goat anti-Rabbit IgG (H+L) Cross-Adsorbed Secondary Antibody labeled using Alexa Fluor™ 488 and available from Invitrogen; A-11008) and analyzed using flow cytometry. Unedited cells and isotype control antibody stained cells were used as controls representing high and low levels of PPIA protein, respectively. The x-axis of FIG. 7 indicates the level of PPIA protein measured. In FIG. 7, the y-axis represents cell counts normalized to the mode cell count measured for PPIA expression levels in a sample (i.e., the most frequently counted expression level was set to have a total cell count value (y-axis value) equal to 100).

| Molecule | antigen-driven proliferation of FKBP1A^KO 19CAR-T cells (19CAR-T cells [1]) | cytokine production of FKBP1A^KO 19CAR-T cells (19CAR-T cells [2]) | PPIA expression (PPIA protein) | other results |
| --- | --- | --- | --- | --- |
| CC[C@H](C(=O)N1CCCC[C@H]1C(=O)O[C@H](CCc1ccc(OC)c(OC)c1)c1cccc(OCC(=O)NCCNC(=O)COc2cccc([C@@H](CCc3ccc(OC)c(OC)c3)OC(=O)[C@@H]3CCCCN3C(=O)[C@@H](CC)c3cc(OC)c(OC)c(OC)c3)c2)c1)c1cc(OC)c(OC)c(OC)c1 [AP1903] |  |  |  | apoptosis of donor T cells (donor T cells): approximately 99% |
| C[C@@H]1C[C@H]2[C@@H]3CCC4=CC(=O)C=C[C@]4(C)[C@@]3(F)[C@@H](O)C[C@]2(C)[C@@]1(O)C(=O)CO [dexamethasone, Dexamethasone] | suppressed | suppressed |  |  |
| recombinant human IL-15: recombinant human IL-15 (BioLegend) |  |  |  | priming of endogenous NK cells against b2M^KO T cells (endogenous NK cells): prime endogenous NK cells against b2M^KO T cells in vivo |
| C[C@]12C=CC(=O)C=C1CC[C@@H]1[C@@H]2C(=O)C[C@@]2(C)[C@H]1CC[C@]2(O)C(=O)CO [prednisone, Prednisone] | suppressed | suppressed |  |  |
| B1 |  |  | Knock-out of PPIA expression |  |
| B2 |  |  | Knock-out of PPIA expression |  |

Reference: patent US20260183393A1, “IMMUNOSUPPRESSANT-RESISTANT MODIFIED ALLOGENEIC MODIFIED IMMUNE CELLS AND METHODS FOR USE THEREOF” (Beam Therapeutics Inc., priority 2023, published 2026)
